The values below come from patent publication US12692273B2, “p53 modulators and uses thereof” (The Regents of the University of California, priority 2019, dated 2026).

Experiment [1] concerns the target T1, p53 Y220C (Homo sapiens, UniProt P04637, C124S/C182S/C229S/C275S/C277S/M133L/N239Y/N268D/Y220C).
T1 construct: Human p53 WT, R273C, and Y220C (residues 94-312,; 6xHIS (TEV-cleavable) (cleaved yes); made in house; host or cells: E. coli BL21(DE3)
Kind of experiment: Thermal stability assay (differential scanning fluorimetry) of p53 Y220C covalent adducts. The experiment is classed as binding. The conditions noted are these: for Tm: p53 Y220C-compound adduct, p53 Y220C alone 33.0, p53 WT 41.5; for Δ Tm (thermal shift, stabilization of Y220C): relative to p53 Y220C alone. How it is done:
We synthesized a series of compounds, covalently labelled recombinant p53 (Y220C) with the compound, and performed differential scanning fluorimetry (DSF) assay to determine Tm relative to Y220C alone. We tested our lead compounds with the largest increase in Tm in homozygous p53 (Y220C) cell lines BxPC-3 and HCC1419 to determined how the covalent molecules alter p53 target gene expression. p53 WT MCF10A and p53 null Calu-1 cells were used as controls. The cell panel was treated with concentrations of compound ranging 100 nM-10 μM for 4 hr, 24 hr, and 48 hr. DMSO was used as a negative control, KG2 as a positive control, and Nutlin-3a as a positive control for p53 WT (FIG. 3D). We determined the differences in p53 target gene activation by performing qPCR on CDKN1A, MDM2, PUMA, BAX, NOXA, and used GAPDH as a negative control. We also performed a western blot on p53, p21, MDM2, and actin as a control to monitor the expected increase in protein levels of p21 and MDM2 protein. […] We immunoprecipitated p53 Y220C from the compound treated cell panel with Pab240 or IgG control, and western blot for p53 to determine the relative rescue of the native fold compared to DMSO treated cells.
(§1) Recombinant protein expression. Human p53 WT, R273C, and Y220C (residues 94-312, (C124S, M133L, C182S, C229S, N239Y, N268D, C275S, C277S) were expressed as 6×HIS fusion proteins in E. coli BL21(DE3). Lysates were first purified by Ni Sepharose High Performance (GE Healthcare) affinity chromatography. Proteins were then eluted from the resin and subject to Heparin (GE Healthcare) affinity chromatography. The elution fraction was then subjected to TEV protease cleavage overnight in 50 mM HEPES, 200 mM NaCl, and 1 mM DTT (pH 7.0). The protein was then passed over Heparin affinity resin again to remove free 6×HIS and TEV protease, concentrated, and stored in a buffer containing 50 mM HEPES, 200 mM NaCl, and 20% glycerol (pH 7.0).
Thermal Stability Assays. The thermal denaturation of p53 was monitored using fluorescence-based differential scanning fluorimetry assay. Purified p53 was incubated with excess covalent ligand overnight at 4° C. and purified by gel-filtration into 50 mM HEPES, 100 mM NaCl, and 15% glycerol (pH 7.0). 5 μM protein was prepared in assay buffer 50 mM HEPES and 100 mM NaCl (pH 7.0) with 2×SYPRO Orange (ThermoFisher). The plate was heated from 15° C. to 65° C. at a rate of 0.5° C./min. The fluorescence intensity was monitored at Ex/Em: 492/610 nm.
In general terms: Differential scanning fluorimetry follows unfolding on heating by fluorescence.

Another experiment deals with BxPC-3 (Y220C) cells. Kind of experiment: Western blot of p21 and p53 in BxPC-3 (Y220C) cells. The experiment is classed as cell-based, human. The source says: (§2) This is exciting preliminary evidence of successful re-animation of p53 (Y220C) with our lead compound KG2.
We have successfully synthesized several PEG linked versions of JQ1-KG1 bivalent molecules. We also treated BxPC-3 cells with free KG1 and JQ1 compounds as additional controls. We have performed western blots on p53, p21 and actin as a control (FIG. 4C).
(§3) Western blots and antibodies. Whole-cell extracts from MCF10A (Gift from Prof. Sourav Bandyopadhyay, UCSF), BxPC-3 (ATCC, CRL-1687), Calu-1 (ATCC, HTB-54) were prepared by lysing cells with lysis buffer containing 50 mM HEPES, 150 mM NaCl, 1 mM DTT, 10% glycerol, and 1% NP-40 (pH 7.0) in the presence of 1×cOmplete EDTA-free protease inhibitor cocktail (Roche). Whole-cell extracts were combined with 2×SDS-loading buffer for western blot analysis.
(§4) Western blots were performed with 10 μg protein and were resolved by SDS-PAGE on 4-12% BT gels (Invitrogen) at 150 V for 1 hr in MES buffer and transferred to nitrocellulose membranes, which were then incubated with primary antibodies at 4° C. overnight, followed by incubation with LI-COR IRDye anti-mouse and anti-rabbit secondary antibodies at room temperature for 1 hr. Bands were imaged on a LI-COR Odyssey scanner.
(§5) Antibodies for western blot detection were as follows: p53 (DO-1, SCBT), actin (8H10D10, CST), Rb phosS807/811 (85165, CST), and p21 (SX118, SCBT).

Experiment [2] addresses T1, p53 Y220C. The experiment in a line: LC-MS analysis of p53 Y220C covalent labeling. The experiment is classed as binding. The conditions noted are these: for label and reactivate p53 Y220C: recombinant protein and patient derived cell-lines; for covalent labeling of p53 (Y220C): recombinant protein, Cys-220. As for the experimental part:
as §1
LC-MS analysis of p53 Y220C covalent labeling. Recombinant p53 Y220C (1 μM) in buffer containing 50 mM HEPES and 150 mM NaCl (pH 7.0) was treated with covalent compounds. The extent of covalent labeling was assessed by LC-MS (Waters Xevo G2-XS QTof, ACQUITY UPLC Protein BEH C4 Column, 300 Å, 1.7 μm, 2.1 mm×50 mm). Deconvolution of multiply charged ions was performed using Waters MassLynx software (version 4.1).

The subject of the next experiment is Calu-1 (null) cells. Kind of experiment: Western blot of p21 in Calu-1 (p53 null) cells. The experiment is classed as cell-based, human. The conditions noted are these: Calu-1, p53 null setting. As for the experimental part: as §2, §3, §4, §5

Molecules are shown by their SMILES. “And” between values parts separate entries of the source, which are not always exact repeats. Identical values can stand only once. “Also recorded” adds a separate entry of the source.

Regarding `C=C(CC)C(N)=O` [2-Ethylacrylamide], the “stabilization of Y220C (in words)” value on p53 Y220C [1] (DSF, in the assay tested) is “did not stabilize”.

On to `C=CC(=O)n1c2ccccc2c2cc(C(=O)NCCOCCOCCOCCOCCNC(=O)C[C@@H]3N=C(c4ccc(Cl)cc4)c4c(sc(C)c4C)-n4c(C)nnc43)ccc21` [JQ1PEG4KG1], for which the “p21 induction (Western blot)” value with BxPC-3 (Y220C) cells (BxPC-3 (p53 Y220C) cells) was “strongly induce p21”. In addition, the “target p53 (Y220C) engagement (higher MW shift of p53 band)” value with BxPC-3 (Y220C) cells (BxPC-3 cells, Western blot) is “evidence of target p53 (Y220C) engagement”. In addition, the “cell death (lower actin staining)” value in the experiment on BxPC-3 (Y220C) cells (BxPC-3 cells, higher concentrations, 24 hours) was “extensive cell death”.

Take `Cc1sc2c(c1C)C(c1ccc(Cl)cc1)=N[C@@H](CC(=O)OC(C)(C)C)c1nnc(C)n1-2` [JQ1, (S)-tert-butyl 2-(4-(4-chlorophenyl)-2,3,9-trimethyl-6H-thieno[3,2-f][1,2,4]triazolo[4,3-a][1,4]diazepin-6-yl)acetate, reference compound]: the “p21 induction (Western blot)” value with BxPC-3 (Y220C) cells (BxPC-3 (p53 Y220C) cells) is on record as “modest activation of p21”.

Regarding `C=CC(=O)n1c2ccccc2c2cc(C=O)ccc21` [KG1], at p53 Y220C [2], the “label and reactivate p53 Y220C” value is “label and reactivate”; the “covalent labeling of p53 (Y220C)” value is “reacts with p53 (Y220C); also recorded: covalently labels”. Moreover, the Tm on p53 Y220C [1] (DSF) is 35 °C and 34.5 °C. For the same molecule, the “Δ Tm (thermal shift, stabilization of Y220C)” value at p53 Y220C [1] was found to be 1.5 °C. Moreover, in the experiment on BxPC-3 (Y220C) cells (BxPC-3 (p53 Y220C) cells), the “p21 induction (Western blot)” value was “little or no effects”.

With `C=CC(=O)n1cc(C=O)c2ccccc21` [KG37], the melting temperature (Tm) on p53 Y220C [1] (DSF) turned out to be 34.5 °C. Besides, the “Δ Tm (thermal shift, stabilization of Y220C)” value at p53 Y220C [1] was 1.5 °C.

As to `C#CCNC(=O)c1cn(C(=O)C=C)c2ccccc12` [KG2], in the experiment with Calu-1 (null) cells, the “p21 induction (Western blot)” value was “does not show induction of p21”. On p53 Y220C [2], the “label and reactivate p53 Y220C” value is “label and reactivate”; the “covalent labeling of p53 (Y220C)” value was “labels p53 (Y220C)”. Moreover, in the experiment on BxPC-3 (Y220C) cells (BxPC-3 (p53 Y220C) cells), the “active concentration for p21 activation” value was “active at μM concentrations” and the “p21 induction (Western blot)” value is recorded as “activation of p21 expression in Y220C cells to the same level as nutlin in WT p53 cells”.

A word on the Tm: it is the temperature at the midpoint of the melting transition.
